Laboratory results from patent US4223020A, “Synthetic peptides having pituitary growth hormone releasing activity” (Beckman Instruments, Inc., priority 1979, dated 1980).
Non-standard residues stand in square brackets, D forms with d. Residues, ends and D or L forms follow the SMILES beside them.

System: pituitaries removed from 20 day old female rats
Assay: In vitro growth hormone release study (incubated rat pituitaries, GH radioimmunoassay)
Type: cell-based
Conditions: mean ± SEM, two pituitaries in 1 ml lactated Ringer's, 36° C.
Protocol: Female rats of the CD-1 strain were housed in a constant temperature room at 24° C. with 14 hours light and 10 hours darkness. The rats were fed Purina brand rat chow ab libitum.
All studies were started between 0800 and 1000 hours.
Pituitaries were removed from 20 day old female rats. Two pituitaries were incubated at 36° C. in 1 ml of lactated Ringer's solution in 10 ml polytetrafluoroethylene beakers in a Dubnoff Shaker (90 cycles/min.). The pituitaries were incubated a total of 4 hours (P1, P2, I3, and I4). After two successive one hour preincubation periods (P1, P2), the peptide was added to the incubation medium hourly for 2 hours (I3, I4).
This in vitro study was performed in triplicate and a standard radioimmunoassay of growth hormone present in the incubation medium was performed in duplicate. The hormonal activity was calculated as the difference (Δ) of growth hormone (GH) levels between I3, I4 and P2, i.e., (I3 -P2) and (I4 -P2). P values were calculated by Students' t test using six growth hormone values for each value recorded.
The growth hormone radioimmunoassay reagents were distributed by the National Institute of Arthritis and […] (NIAMDD) program. The growth hormone values were calculated in terms of nanograms (ng) of a rat standard with a growth hormone potency of 0.61 units/mg.

| Compound | In vitro growth hormone release (Δ GH levels, I3-P2 and I4-P2) (0.3μg peptide) | In vitro growth hormone release (Δ GH levels, I3-P2 and I4-P2) (1μg peptide) | In vitro growth hormone release (Δ GH levels, I3-P2 and I4-P2) (10μg peptide) | In vitro growth hormone release (Δ GH levels, I3-P2 and I4-P2) (0.1μg peptide) | In vitro growth hormone release (Δ GH levels, I3-P2 and I4-P2) (100μg peptide) |
| --- | --- | --- | --- | --- | --- |
| NC(=O)[C@H](Cc1ccc(O)cc1)NC(=O)[C@@H](Cc1c[nH]c2ccccc12)NC(=O)[C@@H](Cc1c[nH]c2ccccc12)NC(=O)[C@@H](N)Cc1ccc(O)cc1 [H2 N--Tyr--D-Trp--D-trp--Tyr--CONH2, H2 N-Tyr-D-Trp-D-Trp-Tyr-CONH2] (H-Y[dW][dW]Y-NH2) | 345 ± 103 ng GH/ml incubation medium | 1111 ± 572 ng GH/ml incubation medium | 1898 ± 267 ng GH/ml incubation medium | – | – |
| H2 N-Tyr-D-Trp-D-Trp-Phe-CONH2 [H2 N--Tyr--D-Trp--D-Trp--Phe--CONH2] | – | 686 ± 82 ng GH/ml incubation medium | 1790 ± 160 ng GH/ml incubation medium | 453 ± 48 ng GH/ml incubation medium | 984 ± 355 ng GH/ml incubation medium |
